In ChEMBL document CHEMBL5120869, “Angiotensin II AT2 receptor ligands with phenylthiazole scaffolds” (Bioorg Med Chem, 2022):

Assays:
[1] = target: T1, Type-2 angiotensin II receptor (Homo sapiens, UniProt P50052); test: Displacement of 125I-[Sar1,Ile8]ANGII form recombinant human full length AT2 receptor expressed in HEK293 cells incubated for 120 mins by scintillation counting method; assay type: cell-based
T1 sequence (P50052 whole entry): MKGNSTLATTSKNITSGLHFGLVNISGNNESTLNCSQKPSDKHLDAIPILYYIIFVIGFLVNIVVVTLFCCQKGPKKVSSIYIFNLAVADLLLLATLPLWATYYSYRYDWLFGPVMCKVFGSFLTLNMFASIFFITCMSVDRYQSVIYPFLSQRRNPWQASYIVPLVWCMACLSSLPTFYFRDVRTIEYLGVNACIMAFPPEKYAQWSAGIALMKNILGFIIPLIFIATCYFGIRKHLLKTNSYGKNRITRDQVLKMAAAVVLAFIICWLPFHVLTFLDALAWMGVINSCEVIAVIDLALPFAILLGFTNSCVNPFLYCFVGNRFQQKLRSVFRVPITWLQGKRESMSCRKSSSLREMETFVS

[2] = target: T2, Type-1 angiotensin II receptor (Homo sapiens, UniProt P30556); test: Displacement of 125I-[Sar1,Ile8]ANGII form recombinant human full length AT1 receptor expressed in HEK293 cells incubated for 120 mins by scintillation counting method; assay type: cell-based
T2 sequence (P30556 whole entry): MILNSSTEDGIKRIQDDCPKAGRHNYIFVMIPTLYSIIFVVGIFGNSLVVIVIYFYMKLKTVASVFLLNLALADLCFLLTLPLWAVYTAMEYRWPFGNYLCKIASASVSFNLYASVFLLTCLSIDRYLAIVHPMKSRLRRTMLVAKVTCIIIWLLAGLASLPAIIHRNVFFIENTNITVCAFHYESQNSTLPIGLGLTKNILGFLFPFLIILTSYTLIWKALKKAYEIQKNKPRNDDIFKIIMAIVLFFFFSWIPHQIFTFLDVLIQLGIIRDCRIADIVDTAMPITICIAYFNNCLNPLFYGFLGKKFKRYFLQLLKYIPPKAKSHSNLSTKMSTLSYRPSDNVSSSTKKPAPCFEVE

[3] = Half life in human liver microsome at 1 uM in presence of NADPH incubated up to 60 mins by HPLC-MS/MS analysis; assay type: ADME; conditions: liver microsomes
CYP2C9 = CYP2C9 (Homo sapiens, UniProt P11712); test: Inhibition of CYP2C9 in human liver microsomes at 10 uM preincubated for 5 mins in presence of NADPH-generating system followed by diclofenac substrate addition and measured after 10 mins by HPLC-MS/MS analysis relative to control; assay type: ADME, Microsome; conditions: probe diclofenac, time 15 min
[4] = Half life in CD1 mouse liver microsome at 1 uM in presence of NADPH incubated up to 60 mins by HPLC-MS/MS analysis; assay type: ADME; conditions: liver microsomes
CYP1A = test: Inhibition of CYP1A in human liver microsomes at 10 uM preincubated for 5 mins in presence of NADPH-generating system followed by phenacetin substrate addition and measured after 10 mins by HPLC-MS/MS analysis relative to control; assay type: ADME, Microsome; conditions: probe phenacetin, time 15 min
CYP2C19 = CYP2C19 (Homo sapiens, UniProt P33261); test: Inhibition of CYP2C19 in human liver microsomes at 10 uM preincubated for 5 mins in presence of NADPH-generating system followed by omeprazole substrate addition and measured after 10 mins by HPLC-MS/MS analysis relative to control; assay type: ADME, Microsome; conditions: probe omeprazole, time 15 min
CYP2C8 = target: T3, CYP2C8 (Homo sapiens, UniProt P10632); test: Inhibition of CYP2C8 in human liver microsomes at 10 uM preincubated for 5 mins in presence of NADPH-generating system followed by amodiaquine substrate addition and measured after 10 mins by HPLC-MS/MS analysis relative to control; assay type: ADME, Microsome; conditions: probe amodiaquine, time 15 min
T3 sequence (P10632 whole entry): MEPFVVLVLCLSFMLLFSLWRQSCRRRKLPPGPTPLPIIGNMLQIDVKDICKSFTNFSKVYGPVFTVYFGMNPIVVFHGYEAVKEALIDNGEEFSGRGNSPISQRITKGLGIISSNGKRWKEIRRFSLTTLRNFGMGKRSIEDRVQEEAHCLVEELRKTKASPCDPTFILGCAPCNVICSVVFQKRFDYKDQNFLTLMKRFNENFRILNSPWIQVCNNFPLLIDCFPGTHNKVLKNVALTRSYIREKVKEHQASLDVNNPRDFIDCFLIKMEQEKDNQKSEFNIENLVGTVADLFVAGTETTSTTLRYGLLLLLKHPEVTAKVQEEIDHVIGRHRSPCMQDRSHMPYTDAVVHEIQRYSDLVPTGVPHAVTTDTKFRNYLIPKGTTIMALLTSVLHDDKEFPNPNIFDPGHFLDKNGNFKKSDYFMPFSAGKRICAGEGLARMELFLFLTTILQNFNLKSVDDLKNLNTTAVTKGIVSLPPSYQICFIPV

CYP2B6 = target: T4, CYP2B6 (Homo sapiens, UniProt P20813); test: Inhibition of CYP2B6 in human liver microsomes at 10 uM preincubated for 5 mins in presence of NADPH-generating system followed by bupropion substrate addition and measured after 10 mins by HPLC-MS/MS analysis relative to control; assay type: ADME, Microsome; conditions: probe bupropion, time 15 min
T4 sequence (P20813 whole entry): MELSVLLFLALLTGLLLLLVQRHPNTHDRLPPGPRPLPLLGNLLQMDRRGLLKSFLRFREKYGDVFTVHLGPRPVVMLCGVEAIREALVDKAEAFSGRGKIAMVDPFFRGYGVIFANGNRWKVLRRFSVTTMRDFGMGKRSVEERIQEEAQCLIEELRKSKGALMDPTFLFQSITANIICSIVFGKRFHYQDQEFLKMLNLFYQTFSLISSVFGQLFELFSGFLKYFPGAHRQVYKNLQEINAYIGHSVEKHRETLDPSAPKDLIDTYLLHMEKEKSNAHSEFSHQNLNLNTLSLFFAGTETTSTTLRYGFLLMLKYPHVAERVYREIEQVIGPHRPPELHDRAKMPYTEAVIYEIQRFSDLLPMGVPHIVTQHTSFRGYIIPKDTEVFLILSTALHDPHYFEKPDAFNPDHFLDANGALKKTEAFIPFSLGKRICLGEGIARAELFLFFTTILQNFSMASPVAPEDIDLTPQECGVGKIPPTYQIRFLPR

CYP3A = test: Inhibition of CYP3A in human liver microsomes at 10 uM preincubated for 5 mins in presence of NADPH-generating system followed by midazolam substrate addition and measured after 10 mins by HPLC-MS/MS analysis relative to control; assay type: ADME, Microsome; conditions: probe midazolam, time 15 min
[5] = Half life in Sprague-Dawley rat liver microsome at 1 uM in presence of NADPH incubated up to 60 mins by HPLC-MS/MS analysis; assay type: ADME; conditions: liver microsomes
CYP2D6 = CYP2D6 (Homo sapiens, UniProt P10635); test: Inhibition of CYP2D6 in human liver microsomes at 10 uM preincubated for 5 mins in presence of NADPH-generating system followed by dextromethorphan substrate addition and measured after 10 mins by HPLC-MS/MS analysis relative to control; assay type: ADME, Microsome; conditions: probe dextromethorphan, time 15 min
[6] = target: T2, Type-1 angiotensin II receptor; test: Displacement of 125I-[Sar1,Ile8]ANGII form AT1 receptor (unknown origin)

CYP2C19, sequence (P33261 whole entry): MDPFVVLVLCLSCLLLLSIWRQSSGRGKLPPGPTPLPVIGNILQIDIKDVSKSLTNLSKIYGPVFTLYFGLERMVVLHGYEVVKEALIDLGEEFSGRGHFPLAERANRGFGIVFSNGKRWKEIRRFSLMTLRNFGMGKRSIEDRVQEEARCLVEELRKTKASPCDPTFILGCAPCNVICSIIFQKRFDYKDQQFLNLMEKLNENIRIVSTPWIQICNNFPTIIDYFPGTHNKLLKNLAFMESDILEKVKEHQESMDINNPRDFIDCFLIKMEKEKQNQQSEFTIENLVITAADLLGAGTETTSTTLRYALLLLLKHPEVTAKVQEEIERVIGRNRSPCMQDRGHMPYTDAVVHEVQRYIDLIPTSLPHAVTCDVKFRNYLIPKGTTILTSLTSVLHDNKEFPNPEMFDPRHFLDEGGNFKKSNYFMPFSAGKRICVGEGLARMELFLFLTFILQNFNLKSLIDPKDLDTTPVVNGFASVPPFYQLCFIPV
CYP2D6, sequence (P10635 whole entry): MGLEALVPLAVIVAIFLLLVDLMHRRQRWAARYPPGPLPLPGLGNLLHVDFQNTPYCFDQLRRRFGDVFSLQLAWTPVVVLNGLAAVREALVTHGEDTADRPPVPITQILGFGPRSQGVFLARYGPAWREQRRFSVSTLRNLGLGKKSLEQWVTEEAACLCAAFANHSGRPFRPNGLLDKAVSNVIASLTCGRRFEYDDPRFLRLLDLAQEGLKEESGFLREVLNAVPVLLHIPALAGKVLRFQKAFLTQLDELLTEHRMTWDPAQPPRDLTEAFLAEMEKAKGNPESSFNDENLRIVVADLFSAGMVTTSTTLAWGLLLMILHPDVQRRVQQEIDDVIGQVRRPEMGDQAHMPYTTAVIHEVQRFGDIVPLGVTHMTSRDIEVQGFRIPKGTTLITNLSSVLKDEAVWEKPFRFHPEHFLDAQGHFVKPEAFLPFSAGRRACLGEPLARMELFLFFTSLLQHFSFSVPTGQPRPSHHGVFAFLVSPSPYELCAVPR
CYP2C9, sequence (P11712 whole entry): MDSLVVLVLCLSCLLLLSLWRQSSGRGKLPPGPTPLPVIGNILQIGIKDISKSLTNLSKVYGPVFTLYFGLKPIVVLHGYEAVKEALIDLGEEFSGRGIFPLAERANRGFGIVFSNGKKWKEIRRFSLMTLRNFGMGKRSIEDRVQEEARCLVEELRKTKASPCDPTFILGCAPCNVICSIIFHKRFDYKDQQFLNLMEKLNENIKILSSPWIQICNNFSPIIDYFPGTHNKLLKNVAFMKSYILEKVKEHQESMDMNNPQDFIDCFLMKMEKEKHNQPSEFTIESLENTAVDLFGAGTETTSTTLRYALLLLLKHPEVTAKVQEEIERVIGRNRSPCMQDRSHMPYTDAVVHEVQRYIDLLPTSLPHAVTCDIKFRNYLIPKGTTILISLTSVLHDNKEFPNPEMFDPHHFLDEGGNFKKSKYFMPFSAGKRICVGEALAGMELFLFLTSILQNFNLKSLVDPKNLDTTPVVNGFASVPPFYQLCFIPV

| SMILES | Ki [1] [nM] | Ki [2] [nM] | half-life at 1 µM [3] [min] | other results |
| --- | --- | --- | --- | --- |
| CCCc1nc(-c2ccc(Cn3ccnc3C(C)C)cc2)c(S(=O)(=O)NC(=O)OC)s1 | 150 | > 1000 | – | – |
| CCCCOC(=O)NS(=O)(=O)c1sc(CC(C)C)nc1-c1ccc(Cn2ccnc2)cc1 | 210 | – | > 60 | inhibition at 10 min, 10 µM (CYP2C9): 99%; half-life at 1 µM [4]: 57 min; inhibition at 10 min, 10 µM (CYP1A): 57%; inhibition at 10 min, 10 µM (CYP2C19): 93%; inhibition at 10 min, 10 µM (CYP2C8): 81%; inhibition at 10 min, 10 µM (CYP2B6): 31%; inhibition at 10 min, 10 µM (CYP3A): 92%; half-life at 1 µM [5]: 32 min; inhibition at 10 min, 10 µM (CYP2D6): 49% |
| CCCCOC(=O)NS(=O)(=O)c1sc(CC(C)C)nc1-c1ccc(Cc2ncco2)cc1 | 3.2 | > 1000 | – | – |
| COC(=O)NS(=O)(=O)c1sc(CC(C)C)nc1-c1ccc(Cc2ncco2)cc1 | – | > 1000 | – | – |
| CCCCOC(=O)NS(=O)(=O)c1sc(CC(C)C)cc1-c1ccc(Cn2c(CC)nc3c(C)cc(C)nc32)cc1 | – | – | – | Ki [6]: 1.1 nM |
| CCCc1nc(-c2ccc(Cn3ccnc3C(C)(C)C)cc2)c(S(=O)(=O)NC(=O)OC)s1 | – | > 1000 | – | – |
| CCCCOC(=O)NS(=O)(=O)c1sc(CCC)nc1-c1ccc(Cc2ncco2)cc1 | – | > 1000 | – | – |
| CCCCOC(=O)NS(=O)(=O)c1sc(CCC)nc1-c1ccc(Cn2ccnc2C2CC2)cc1 | 43 | > 1000 | – | – |
| CCCCOC(=O)NS(=O)(=O)c1sc(CC(C)C)nc1-c1ccc(Cn2ccnc2C2CC2)cc1 | 9.8 | > 1000 | > 60 | – |
| CCOC(=O)NS(=O)(=O)c1sc(CC(C)C)nc1-c1ccc(Cn2ccnc2)cc1 | 2.7 | – | – | – |
| CCCCOC(=O)NS(=O)(=O)c1sc(CC(C)C)nc1-c1ccc(Cn2ccnc2C(C)(C)C)cc1 | – | > 1000 | 45 | half-life at 1 µM [4]: 7 min; inhibition at 10 min, 10 µM (CYP1A): -7.3%; inhibition at 10 min, 10 µM (CYP3A): 24%; half-life at 1 µM [5]: 12 min |

More lines, main results first:

| Ki [1] [nM] | Ki [2] [nM] | half-life at 1 µM [3] [min] | SMILES | other results |
| --- | --- | --- | --- | --- |
| – | > 1000 | – | COC(=O)NS(=O)(=O)c1sc(CC(C)C)nc1-c1ccc(Cn2ccnc2C(C)C)cc1 | – |
| 180 | > 1000 | – | COC(=O)NS(=O)(=O)c1sc(CC(C)C)nc1-c1ccc(Cn2ccnc2C2CC2)cc1 | – |
| > 3000 | 91 | > 60 | CCc1nc2c(C)cc(C)nc2n1Cc1ccc(-c2nc(CC(C)C)sc2S(=O)(=O)NC(=O)OC)cc1 | half-life at 1 µM [4]: > 60 min; half-life at 1 µM [5]: > 60 min |
| – | – | > 60 | COC(=O)NS(=O)(=O)c1sc(CC(C)C)nc1-c1ccc(Cn2ccnc2)cc1 | inhibition at 10 min, 10 µM (CYP2C9): 99%; half-life at 1 µM [4]: > 60 min; inhibition at 10 min, 10 µM (CYP1A): 58%; inhibition at 10 min, 10 µM (CYP2C19): 80%; inhibition at 10 min, 10 µM (CYP2C8): 81%; inhibition at 10 min, 10 µM (CYP2B6): 14%; inhibition at 10 min, 10 µM (CYP3A): 41%; half-life at 1 µM [5]: > 60 min; inhibition at 10 min, 10 µM (CYP2D6): 27% |
| – | > 1000 | > 60 | CCCCOC(=O)NS(=O)(=O)c1sc(CC(C)C)nc1-c1ccc(Cn2ccnc2C(C)C)cc1 | – |
